Reference: patent US11109593B2, “Isoxazolin-5-one derivative and herbicide containing same as active ingredient” (HOKKO CHEMICAL INDUSTRY CO., LTD., priority 2017, dated 2021)

Tests used:
Format in all cases: in vivo
[1] = test system: broad leaf weeds (Lindernia pyxidaria and Monochoria vaginalis); assay: Test Example 2: herbicidal effect test by treatment during growing period in paddy rice cultivation (seven days after seeding); settings: for Herbicidal rate (%) Lindernia pyxidaria / Herbicidal rate (%) Monochoria vaginalis: 120 g/10a active ingredient, assessed 14 days after treatment, dry weight vs untreated area; for herbicidal rate, Lindernia pyxidaria / herbicidal rate, Monochoria vaginalis: 120 g/10a, rated 14 days after treatment, paddy soil pots
Procedure, shortened: (§1)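 Seeds sown 0–1 cm deep in puddled, fertilised paddy soil with about 3 cm standing water in a glass greenhouse. Diluted emulsion dropped into the water seven days after seeding at 120 g active ingredient per 10 ares. Herbicidal rate (%) from mean dry weight vs untreated, duplicate, 14 days after treatment.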

Echinochloa crus-galli [2] = assay: as above; settings: for Herbicidal rate (%) Echinochloa crus-galli: 120 g/10a active ingredient, assessed 14 days after treatment, dry weight vs untreated area; for herbicidal rate, Echinochloa crus-galli: 120 g/10a, rated 14 days after treatment, paddy soil pots
Procedure, shortened: as §1

Scirpus juncoides [3] = assay: as above; settings: for Herbicidal rate (%) Scirpus juncoides: 120 g/10a active ingredient, assessed 14 days after treatment, dry weight vs untreated area; for herbicidal rate, Scirpus juncoides: 120 g/10a, rated 14 days after treatment, paddy soil pots
Procedure, shortened: as §1

[4] = test system: broad leaf weeds (Lindernia pyxidaria and Monochoria vaginalis); assay: Test Example 1: herbicidal effect test by treatment of rice paddy soil (immediately after seeding)
Procedure, shortened: (§2)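 Flooded paddy pot test in a glass greenhouse: emulsion diluted in water, dropped at 120 g a.i. per 10 ares just after sowing, water depth kept about 3 cm. Dry-weight reduction relative to untreated plants is scored at 14 days.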

Echinochloa crus-galli [5] = assay: as above
Procedure, shortened: as §2

Scirpus juncoides [6] = assay: as above
Procedure, shortened: as §2

[7] = Lindernia pyxidaria, 120 g/10a active ingredient, dry weight vs untreated area, 14 days after treatment
[8] = Monochoria vaginalis, 120 g/10a active ingredient, dry weight vs untreated area, 14 days after treatment
[9] = 120 g/10a active ingredient, dry weight vs untreated area, 14 days after treatment
[10] = Lindernia pyxidaria, 120 g/10a active ingredient, 14 days after treatment, dry weight vs untreated area
[11] = Monochoria vaginalis, 120 g/10a active ingredient, 14 days after treatment, dry weight vs untreated area
[12] = 120 g/10a active ingredient, 14 days after treatment, dry weight vs untreated area

Cc1c(Cc2ccccc2N(S(=O)(=O)C(F)(F)F)S(=O)(=O)C(F)(F)F)c(=O)on1Cc1ccc(OC(F)(F)F)cc1 [Compound 1-1023]
Herbicidal rate (%) Lindernia pyxidaria [1]: 40%
Herbicidal rate (%) Monochoria vaginalis [1]: 40%
Herbicidal rate (%) Echinochloa crus-galli (Echinochloa crus-galli [2]): 40%
Herbicidal rate (%) Scirpus juncoides (Scirpus juncoides [3]): 40%
Herbicidal rate (%) Lindernia pyxidaria [4, 7]: 40%
Herbicidal rate (%) Monochoria vaginalis [4, 8]: 50%
Herbicidal rate (%) Echinochloa crus-galli (Echinochloa crus-galli [5]; [9]): 50%
Herbicidal rate (%) Scirpus juncoides (Scirpus juncoides [6]; [9]): 50%

Cc1c(Cc2ccccc2N(S(=O)(=O)C(F)(F)F)S(=O)(=O)C(F)(F)F)c(=O)on1Cc1ccc(F)cc1F [Compound 1-1026]
Herbicidal rate (%) Lindernia pyxidaria [1]: 100%
Herbicidal rate (%) Monochoria vaginalis [1]: 90%
Herbicidal rate (%) Echinochloa crus-galli (Echinochloa crus-galli [2]): 60%
Herbicidal rate (%) Scirpus juncoides (Scirpus juncoides [3]): 80%
Herbicidal rate (%) Lindernia pyxidaria [4, 7]: 100%
Herbicidal rate (%) Monochoria vaginalis [4, 8]: 100%
Herbicidal rate (%) Echinochloa crus-galli (Echinochloa crus-galli [5]; [9]): 100%
Herbicidal rate (%) Scirpus juncoides (Scirpus juncoides [6]; [9]): 90%

Cc1c(Cc2ccccc2N(S(=O)(=O)C(F)(F)F)S(=O)(=O)C(F)(F)F)c(=O)on1Cc1ccc(F)c(F)c1 [Compound 1-1027]
Herbicidal rate (%) Lindernia pyxidaria [1]: 40%
Herbicidal rate (%) Monochoria vaginalis [1]: 40%
Herbicidal rate (%) Echinochloa crus-galli (Echinochloa crus-galli [2]): 40%
Herbicidal rate (%) Scirpus juncoides (Scirpus juncoides [3]): 40%
Herbicidal rate (%) Lindernia pyxidaria [4, 7]: 100%
Herbicidal rate (%) Monochoria vaginalis [4, 8]: 100%
Herbicidal rate (%) Echinochloa crus-galli (Echinochloa crus-galli [5]; [9]): 90%
Herbicidal rate (%) Scirpus juncoides (Scirpus juncoides [6]; [9]): 80%

Cc1c(Cc2ccccc2N(S(=O)(=O)C(F)(F)F)S(=O)(=O)C(F)(F)F)c(=O)on1Cc1ccc(F)cc1Cl [Compound 1-1028]
Herbicidal rate (%) Lindernia pyxidaria [1]: 40%
Herbicidal rate (%) Monochoria vaginalis [1]: 40%
Herbicidal rate (%) Echinochloa crus-galli (Echinochloa crus-galli [2]): 0%
Herbicidal rate (%) Scirpus juncoides (Scirpus juncoides [3]): 0%
Herbicidal rate (%) Lindernia pyxidaria [4, 7]: 80%
Herbicidal rate (%) Monochoria vaginalis [4, 8]: 90%
Herbicidal rate (%) Echinochloa crus-galli (Echinochloa crus-galli [5]; [9]): 80%
Herbicidal rate (%) Scirpus juncoides (Scirpus juncoides [6]; [9]): 40%

Cc1c(Cc2ccccc2N(S(=O)(=O)C(F)(F)F)S(=O)(=O)C(F)(F)F)c(=O)on1C(C)c1ccc(F)cc1 (stereo not drawn) [Compound 1-1031]
Herbicidal rate (%) Lindernia pyxidaria [1]: 100%
Herbicidal rate (%) Monochoria vaginalis [1]: 100%
Herbicidal rate (%) Echinochloa crus-galli (Echinochloa crus-galli [2]): 90%
Herbicidal rate (%) Scirpus juncoides (Scirpus juncoides [3]): 100%
Herbicidal rate (%) Lindernia pyxidaria [4, 7]: 100%
Herbicidal rate (%) Monochoria vaginalis [4, 8]: 100%
Herbicidal rate (%) Echinochloa crus-galli (Echinochloa crus-galli [5]; [9]): 100%
Herbicidal rate (%) Scirpus juncoides (Scirpus juncoides [6]; [9]): 100%

Cc1c(Cc2ccccc2N(S(=O)(=O)C(F)(F)F)S(=O)(=O)C(F)(F)F)c(=O)on1C(C)c1ccccc1Cl (stereo not drawn) [Compound 1-1032]
Herbicidal rate (%) Lindernia pyxidaria [1]: 40%
Herbicidal rate (%) Monochoria vaginalis [1]: 40%
Herbicidal rate (%) Echinochloa crus-galli (Echinochloa crus-galli [2]): 40%
Herbicidal rate (%) Scirpus juncoides (Scirpus juncoides [3]): 40%
Herbicidal rate (%) Lindernia pyxidaria [4, 7]: 90%
Herbicidal rate (%) Monochoria vaginalis [4, 8]: 90%
Herbicidal rate (%) Echinochloa crus-galli (Echinochloa crus-galli [5]; [9]): 80%
Herbicidal rate (%) Scirpus juncoides (Scirpus juncoides [6]; [9]): 90%

Cc1c(Cc2ccccc2N(S(=O)(=O)C(F)(F)F)S(=O)(=O)C(F)(F)F)c(=O)on1C(C)c1cccc(Cl)c1 (stereo not drawn) [Compound 1-1033]
Herbicidal rate (%) Lindernia pyxidaria [1]: 80%
Herbicidal rate (%) Monochoria vaginalis [1]: 80%
Herbicidal rate (%) Echinochloa crus-galli (Echinochloa crus-galli [2]): 70%
Herbicidal rate (%) Scirpus juncoides (Scirpus juncoides [3]): 80%
Herbicidal rate (%) Lindernia pyxidaria [4, 7]: 100%
Herbicidal rate (%) Monochoria vaginalis [4, 8]: 100%
Herbicidal rate (%) Echinochloa crus-galli (Echinochloa crus-galli [5]; [9]): 90%
Herbicidal rate (%) Scirpus juncoides (Scirpus juncoides [6]; [9]): 90%

Cc1c(Cc2ccccc2N(S(=O)(=O)C(F)(F)F)S(=O)(=O)C(F)(F)F)c(=O)on1C(C)c1ccc(Cl)cc1 (stereo not drawn) [Compound 1-1034]
Herbicidal rate (%) Lindernia pyxidaria [1]: 80%
Herbicidal rate (%) Monochoria vaginalis [1]: 80%
Herbicidal rate (%) Echinochloa crus-galli (Echinochloa crus-galli [2]): 90%
Herbicidal rate (%) Scirpus juncoides (Scirpus juncoides [3]): 90%
Herbicidal rate (%) Lindernia pyxidaria [4, 7]: 100%
Herbicidal rate (%) Monochoria vaginalis [4, 8]: 100%
Herbicidal rate (%) Echinochloa crus-galli (Echinochloa crus-galli [5]; [9]): 100%
Herbicidal rate (%) Scirpus juncoides (Scirpus juncoides [6]; [9]): 90%

Cc1c(Cc2ccccc2N(S(=O)(=O)C(F)(F)F)S(=O)(=O)C(F)(F)F)c(=O)on1C(C)c1ccc(OC(F)(F)F)cc1 (stereo not drawn) [Compound 1-1036]
Herbicidal rate (%) Lindernia pyxidaria [1]: 60%
Herbicidal rate (%) Monochoria vaginalis [1]: 60%
Herbicidal rate (%) Echinochloa crus-galli (Echinochloa crus-galli [2]): 40%
Herbicidal rate (%) Scirpus juncoides (Scirpus juncoides [3]): 60%
Herbicidal rate (%) Lindernia pyxidaria [4, 7]: 60%
Herbicidal rate (%) Monochoria vaginalis [4, 8]: 60%
Herbicidal rate (%) Echinochloa crus-galli (Echinochloa crus-galli [5]; [9]): 70%
Herbicidal rate (%) Scirpus juncoides (Scirpus juncoides [6]; [9]): 70%

Cc1c(Cc2ccccc2N(S(=O)(=O)C(F)(F)F)S(=O)(=O)C(F)(F)F)c(=O)on1C(C)c1ccc(F)cc1F (stereo not drawn) [Compound 1-1037]
Herbicidal rate (%) Lindernia pyxidaria [1]: 60%
Herbicidal rate (%) Monochoria vaginalis [1]: 50%
Herbicidal rate (%) Echinochloa crus-galli (Echinochloa crus-galli [2]): 90%
Herbicidal rate (%) Scirpus juncoides (Scirpus juncoides [3]): 60%
Herbicidal rate (%) Lindernia pyxidaria [4, 7]: 70%
Herbicidal rate (%) Monochoria vaginalis [4, 8]: 60%
Herbicidal rate (%) Echinochloa crus-galli (Echinochloa crus-galli [5]; [9]): 90%
Herbicidal rate (%) Scirpus juncoides (Scirpus juncoides [6]; [9]): 90%

Cc1c(Cc2ccccc2N(S(=O)(=O)C(F)(F)F)S(=O)(=O)C(F)(F)F)c(=O)on1CCc1ccccc1 [Compound 1-1043]
Herbicidal rate (%) Lindernia pyxidaria [1]: 100%
Herbicidal rate (%) Monochoria vaginalis [1]: 100%
Herbicidal rate (%) Echinochloa crus-galli (Echinochloa crus-galli [2]): 90%
Herbicidal rate (%) Scirpus juncoides (Scirpus juncoides [3]): 90%
Herbicidal rate (%) Lindernia pyxidaria [4, 7]: 100%
Herbicidal rate (%) Monochoria vaginalis [4, 8]: 100%
Herbicidal rate (%) Echinochloa crus-galli (Echinochloa crus-galli [5]; [9]): 100%
Herbicidal rate (%) Scirpus juncoides (Scirpus juncoides [6]; [9]): 90%

Cc1c(Cc2ccccc2N(S(=O)(=O)C(F)(F)F)S(=O)(=O)C(F)(F)F)c(=O)on1CCc1ccc(F)cc1 [Compound 1-1044]
Herbicidal rate (%) Lindernia pyxidaria [1]: 40%
Herbicidal rate (%) Monochoria vaginalis [1]: 40%
Herbicidal rate (%) Echinochloa crus-galli (Echinochloa crus-galli [2]): 70%
Herbicidal rate (%) Scirpus juncoides (Scirpus juncoides [3]): 70%
Herbicidal rate (%) Lindernia pyxidaria [4, 7]: 60%
Herbicidal rate (%) Monochoria vaginalis [4, 8]: 40%
Herbicidal rate (%) Echinochloa crus-galli (Echinochloa crus-galli [5]; [9]): 90%
Herbicidal rate (%) Scirpus juncoides (Scirpus juncoides [6]; [9]): 40%

Cc1c(Cc2ccccc2N(S(=O)(=O)C(F)(F)F)S(=O)(=O)C(F)(F)F)c(=O)on1CC(F)(F)c1ccccc1 [Compound 1-1047]
Herbicidal rate (%) Lindernia pyxidaria [1]: 90%
Herbicidal rate (%) Monochoria vaginalis [1]: 80%
Herbicidal rate (%) Echinochloa crus-galli (Echinochloa crus-galli [2]): 80%
Herbicidal rate (%) Scirpus juncoides (Scirpus juncoides [3]): 80%
Herbicidal rate (%) Lindernia pyxidaria [4, 7]: 100%
Herbicidal rate (%) Monochoria vaginalis [4, 8]: 80%
Herbicidal rate (%) Echinochloa crus-galli (Echinochloa crus-galli [5]; [9]): 90%
Herbicidal rate (%) Scirpus juncoides (Scirpus juncoides [6]; [9]): 90%

Cc1c(Cc2ccccc2N(S(=O)(=O)C(F)(F)F)S(=O)(=O)C(F)(F)F)c(=O)on1Cc1cccs1 [Compound 1-1054]
herbicidal rate, Lindernia pyxidaria [1]: 100%
herbicidal rate, Monochoria vaginalis [1]: 100%
herbicidal rate, Echinochloa crus-galli (Echinochloa crus-galli [2]): 90%
herbicidal rate, Scirpus juncoides (Scirpus juncoides [3]): 90%
Herbicidal rate (%) Lindernia pyxidaria [4, 10]: 100%
Herbicidal rate (%) Monochoria vaginalis [4, 11]: 100%
Herbicidal rate (%) Echinochloa crus-galli (Echinochloa crus-galli [5]; [12]): 90%
Herbicidal rate (%) Scirpus juncoides (Scirpus juncoides [6]; [12]): 90%

Cc1c(Cc2ccccc2N(S(=O)(=O)C(F)(F)F)S(=O)(=O)C(F)(F)F)c(=O)on1Cc1ccsc1 [Compound 1-1055]
herbicidal rate, Lindernia pyxidaria [1]: 40%
herbicidal rate, Monochoria vaginalis [1]: 60%
herbicidal rate, Echinochloa crus-galli (Echinochloa crus-galli [2]): 80%
herbicidal rate, Scirpus juncoides (Scirpus juncoides [3]): 80%
Herbicidal rate (%) Lindernia pyxidaria [4, 10]: 100%
Herbicidal rate (%) Monochoria vaginalis [4, 11]: 100%
Herbicidal rate (%) Echinochloa crus-galli (Echinochloa crus-galli [5]; [12]): 60%
Herbicidal rate (%) Scirpus juncoides (Scirpus juncoides [6]; [12]): 90%
